Consider two compounds from patent US6458831B1, “Use of two plant phenols in the treatment of arteriosclerosis” (Council of Scientific and Industrial Research, priority 2000, dated 2002).

Test [1] has as its target T1, human sex hormone-binding globulin (SHBG) (Homo sapiens, UniProt P04278).
T1 sequence (P04278 30-402): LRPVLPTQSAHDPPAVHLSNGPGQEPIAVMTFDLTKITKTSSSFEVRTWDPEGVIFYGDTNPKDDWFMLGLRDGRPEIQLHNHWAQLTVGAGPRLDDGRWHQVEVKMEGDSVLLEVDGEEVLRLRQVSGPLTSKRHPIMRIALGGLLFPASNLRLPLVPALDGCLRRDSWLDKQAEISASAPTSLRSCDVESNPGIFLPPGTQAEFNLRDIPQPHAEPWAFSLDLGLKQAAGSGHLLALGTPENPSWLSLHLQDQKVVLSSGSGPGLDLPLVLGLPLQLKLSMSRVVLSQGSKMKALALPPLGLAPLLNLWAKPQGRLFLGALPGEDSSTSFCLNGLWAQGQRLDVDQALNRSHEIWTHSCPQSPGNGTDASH
Particulars: cited from earlier work.

In another test the test system is CAMP phosphodiesterase. Particulars: cited from earlier work.
Test [2] in a line: Effectiveness on administration at 250 mg/kg of body weight. It is filed as in vivo. Particulars: dosage of 250 mg/kg of body weight.
Test [3] can be described thus: In vitro DPPH free radical scavenging antioxidant potency. Particulars: Tris-HCl buffer pH 7.4, 45 minutes in dark, absorbency at 517 nm, references probucol and α-tocopherol. On the procedure:
In vitro evaluation of free radical scavenging antioxidant potency:
Antioxidant activity of the compounds ((−)-Matairesinol and (−)-wikstromol) were tested for their capacity/potency to scavenger most widely used free radical 2,2-diphenyl-1-[…] radical (DPPH). The well-accepted and tested probucol and α-tocopherol were taken as reference compounds. 1 mg/ml DMSO concentration of the compounds [(−)-Matairesinol and (−)-wikstromol] were prepared and subsequently, serially diluted to lower concentrations with DMSO […] of test compounds were reconstituted to 1 ml in Tris-HCl buffer (pH 7.4) equal volume of 500 μm of DPPH radical dissolved in ethanol was reacted with this. After incubation for 45 minutes in dark, the absorbency at 517 nm was recorded. Radical with no compound was taken as control for calculation of % radical scavenging activity. All the readings were recorded in triplicate.
On the technique in general: Loss of DPPH colour is used to gauge radical scavenging.

A further test relates to HIV. As to conditions: cited from earlier work.
The test system of test [4] is p-388 lymphocyte leukemia. Particulars: cited from earlier work.

With `COc1cc(C[C@H]2COC(=O)[C@@H]2Cc2ccc(O)c(OC)c2)ccc1O` [(−)-Matairesinol, 4,4^1-dihydroxy-3, 3^1-dimethoxylignan-9, 9^1-olide], in test [1], the “binding of H-labeled 5α-dihydrotestosterone (DHT) to human SHBG” value was “reduce the binding”. Besides, in the test with CAMP phosphodiesterase, the “CAMP phosphodiesterase inhibition activity” value is reported as “exhibits CAMP phosphodiesterase inhibition activity”. Besides, in test [2], the effectiveness when administered result was “highly effective”. Also, the “antioxidant/radical scavenging potency compared with reference standards” value in test [3] is listed as “more potent antioxidant/radical scavenging potency than reference standards”.

With `COc1cc(C[C@@H]2COC(=O)[C@@]2(O)Cc2ccc(O)c(OC)c2)ccc1O` [(−)-wikstromol, 4,4^1,8-trihydroxy-3, 3^1-dimethoxyliganan-9, 9^1-olide], the anti-HIV activity result in the test with HIV is reported as “anti-HIV activity”. For the same compound, the “activity against p-388 lymphocyte leukemia” value in test [4] is on record as “active against p-388 lymphocyte leukemia”. The effectiveness when administered entry in test [2] is “highly effective”. For the same compound, in test [3], the “antioxidant/radical scavenging potency compared with reference standards” value is on record as “more potent antioxidant/radical scavenging potency than reference standards”.
